Measured values as given in patent US20090270342A1, “IMMUNOREGULATORY AGENT” (priority 2006, published 2009).

Key:
Peyer's patch cells = assay: Production of IgA, IgG and cytokines by Peyer's patch cells of mice fed lactosucrose (Experiment 3); type: in vivo; settings: Lactosucrose 5% (w/w); LPS
Protocol: (§1) In order to investigate what type of immunopathologically-mediated tissue exerts the enhancing effect on gut immunity, the amounts of IgA, IgG, and various cytokines were measured. Similarly as in Experiment 1, female BALB/c mice (six weeks old) were preliminary reared for one week on “AIN-93G”, the same standard purified diet as used in Experiment 1. Successively, “LS-90P”, a saccharide composition comprising 91.8% (w/w), on a dry solid basis, of lactosucrose commercialized by ENSUIKO Sugar Refining Co., Ltd., Tokyo, Japan, was incorporated into the above purified diet, in which corn starch equal to the amount of the saccharide composition comprising lactosucrose had been removed, to give a lactosucrose content of 2% (w/w) or 5% (w/w), and five mice/group were allowed to ingest the resulting test diet freely. Mice, allowed to ingest “AIN-93G”, as the standard purified diet, were used as control. At four weeks after starting the administration of the test diet, Peyer's patch and intestinal lymph nodes were respectively removed from the mice and cut using a scissor. Then, the resultants were respectively treated in 0.2% (w/v) aqueous collagenase solution at 37° C. for 30 min, and filtrated using a cell strainer to obtain cell suspensions. Each cell suspension was centrifuged to collect cells and the resulting cells were suspended into a 45% (v/v) solution of “PERCOLL”, commercialized by GE Healthcare, to make into a cell suspension. Each resulting suspension was successively placed on a 75% (v/v) “PERCOLL” solution and centrifuged at 1,000×g for 10 min. Cells in a boundary phase between 45% (v/v) and 75% (v/v) “PERCOLL” solution were collected and suspended in RPMI1640 medium comprising 10% FCS and 10 mM HEPES, and the cell concentration was adjusted to 1×10^6 cells/ml. The resulting cell suspension was placed in a 24-well plate to give one ml/well each. Then, 2 μg/ml of Concanavaline A (Con A) as a stimulator to T-cell or 10 μg/ml of lipopolysaccharide (LPS) as a stimulator to B-cell and macrophage cell was admixed with the cell suspension, and then the cells were cultured at 37° C. for 48 hours using 5% (v/v) carbon dioxide gas. A culture supernatant was collected from each well, and the amounts of IgA, IgG, IFN-γ, interleukin-4 (IL-4), IL-6, interleukin-10 (IL-10), and TGF-β were measured by ELISA using an anti-mouse IgA antibody, anti-mouse IgG antibody, anti-mouse IFN-γ antibody (commercialized by Pepro Tech EC. Ltd.), anti-mouse IL-4 antibody (commercialized by R&D Systems), anti-mouse IL-6 antibody (commercialized by R&D Systems), anti-mouse IL-10 antibody (commercialized by R&D Systems), and anti-mouse TGF-β antibody (commercialized by Promega Co., Wisconsin, USA), and the average values of those from five mice were determined. The results for Peyer's patch cells and intestinal lymph node cells are respectively in Tables 3 and 4. The percentages in parentheses in the tables mean a relative value to the amount of IgA, IgG, IFN-γ, IL-4, IL-6, IL-10 or TGF-β produced by Peyer's patch cells or intestinal lymph node cells from the control mice.

[1] = test system: intestinal lymph node cells; assay: Production of IgA, IgG and cytokines by intestinal lymph node cells of mice fed lactosucrose (Experiment 3); type: in vivo; settings: for IFN-γ produced by intestinal lymph node cells / IL-4 produced by intestinal lymph node cells / IL-6 produced by intestinal lymph node cells / IL-10 produced by intestinal lymph node cells / IgA produced by intestinal lymph node cells / IgG produced by intestinal lymph node cells: four weeks
Protocol: as §1

[2] = in vivo; cited from earlier work
[3] = Lactosucrose 2% (w/w) diet, Con A
[4] = Lactosucrose 2% (w/w) diet, LPS
[5] = Lactosucrose 2% (w/w) diet, LPS, DL: Detection limit
[6] = Lactosucrose 5% (w/w) diet, Con A
[7] = Lactosucrose 5% (w/w) diet, LPS
[8] = Lactosucrose 5% (w/w) diet, LPS, DL: Detection limit

OC[C@H]1O[C@@H](O[C@H]2[C@H](O)[C@@H](O)[C@@H](O[C@]3(CO)O[C@H](CO)[C@@H](O)[C@@H]3O)O[C@@H]2CO)[C@H](O)[C@@H](O)[C@H]1O [Lactosucrose, β-D-galactosyl-(1,4)-α-D-glucosyl-(1,2)-β-D-fructoside]
IL-6 produced by Peyer's patch cells, relative value to control (Peyer's patch cells): (214%)
IL-10 produced by Peyer's patch cells, relative value to control (Peyer's patch cells): (76%)
IgA produced by Peyer's patch cells, relative value to control (Peyer's patch cells): (795%)
IgG produced by Peyer's patch cells, relative value to control (Peyer's patch cells): (822%)
TGF-β produced by Peyer's patch cells, relative value to control (Peyer's patch cells): (92%)
IFN-γ produced by intestinal lymph node cells [1, 3]: 8.5 ± 3.4 ng/mL
IL-4 produced by intestinal lymph node cells [1, 3]: 22 ± 0.89 pg/mL
IL-6 produced by intestinal lymph node cells [1, 3]: 3.0 ± 0.81 pg/mL
IL-10 produced by intestinal lymph node cells [1, 3]: 14 ± 15 pg/mL
IgA produced by intestinal lymph node cells [1, 3]: 41 ± 15 µg/mL
IgG produced by intestinal lymph node cells [1, 3]: 1.9 ± 1.5 ng/mL
IL-6 produced by intestinal lymph node cells [1, 4]: 7.4 ± 2.6 pg/mL
IgA produced by intestinal lymph node cells [1, 4]: 38 ± 17 µg/mL
IgG produced by intestinal lymph node cells [1, 4]: 1.5 ± 1.0 ng/mL
IFN-γ produced by intestinal lymph node cells [1, 5]: Below DL*
IL-4 produced by intestinal lymph node cells [1, 5]: Below DL*
IL-10 produced by intestinal lymph node cells [1, 5]: Below DL*
IFN-γ produced by intestinal lymph node cells, relative value to control ([1]; Lactosucrose 2% (w/w), Con A): (127%)
IL-4 produced by intestinal lymph node cells, relative value to control ([1]; Lactosucrose 2% (w/w), Con A): (88%)
IL-6 produced by intestinal lymph node cells, relative value to control ([1]; Lactosucrose 2% (w/w), Con A): (103%)
IL-10 produced by intestinal lymph node cells, relative value to control ([1]; Lactosucrose 2% (w/w), Con A): (127%)
IgA produced by intestinal lymph node cells, relative value to control ([1]; Lactosucrose 2% (w/w), Con A): (85%)
IgG produced by intestinal lymph node cells, relative value to control ([1]; Lactosucrose 2% (w/w), Con A): (100%)
IL-6 produced by intestinal lymph node cells, relative value to control ([1]; Lactosucrose 2% (w/w), LPS): (107%)
IgA produced by intestinal lymph node cells, relative value to control ([1]; Lactosucrose 2% (w/w), LPS): (93%)
IgG produced by intestinal lymph node cells, relative value to control ([1]; Lactosucrose 2% (w/w), LPS): (115%)
IFN-γ produced by intestinal lymph node cells [1, 6]: 3.8 ± 1.2 ng/mL
IL-4 produced by intestinal lymph node cells [1, 6]: 21 ± 1.1 pg/mL
IL-6 produced by intestinal lymph node cells [1, 6]: 2.7 ± 0.44 pg/mL
IL-10 produced by intestinal lymph node cells [1, 6]: 14 ± 12 pg/mL
IgA produced by intestinal lymph node cells [1, 6]: 37 ± 31 µg/mL
IgG produced by intestinal lymph node cells [1, 6]: 1.00 ± 0.94 ng/mL
IL-6 produced by intestinal lymph node cells [1, 7]: 4.3 ± 1.1 pg/mL
IgA produced by intestinal lymph node cells [1, 7]: 29 ± 22 µg/mL
IgG produced by intestinal lymph node cells [1, 7]: 0.79 ± 0.79 ng/mL
IFN-γ produced by intestinal lymph node cells [1, 8]: Below DL*
IL-4 produced by intestinal lymph node cells [1, 8]: Below DL*
IL-10 produced by intestinal lymph node cells [1, 8]: Below DL*
IFN-γ produced by intestinal lymph node cells, relative value to control ([1]; Lactosucrose 5% (w/w), Con A): (57%)
IL-4 produced by intestinal lymph node cells, relative value to control ([1]; Lactosucrose 5% (w/w), Con A): (84%)
IL-6 produced by intestinal lymph node cells, relative value to control ([1]; Lactosucrose 5% (w/w), Con A): (93%)
IL-10 produced by intestinal lymph node cells, relative value to control ([1]; Lactosucrose 5% (w/w), Con A): (127%)
IgA produced by intestinal lymph node cells, relative value to control ([1]; Lactosucrose 5% (w/w), Con A): (77%)
IgG produced by intestinal lymph node cells, relative value to control ([1]; Lactosucrose 5% (w/w), Con A): (53%)
IL-6 produced by intestinal lymph node cells, relative value to control ([1]; Lactosucrose 5% (w/w), LPS): (62%)
IgA produced by intestinal lymph node cells, relative value to control ([1]; Lactosucrose 5% (w/w), LPS): (71%)
IgG produced by intestinal lymph node cells, relative value to control ([1]; Lactosucrose 5% (w/w), LPS): (61%)
Effect of a dose higher than the maximum dose without harmful effect [2]: causes diarrhea
Maximum dose of lactosucrose without harmful effect [2]: 0.6-0.8 g/kg-body weight
